Experimental data from patent US20220074923A1, “METHODS OF IDENTIFYING PARKIN-MEDIATED MITOPHAGY ACTIVATING AGENTS” (THE GOVERNING COUNCIL OF THE UNIVERSITY OF TORONTO, priority 2018, published 2022).

Assays:
HEK293 GFP Parkin cells [1] = assay: High throughput small molecule screen for Parkin recruitment to mitochondria (high content imaging); assay type: cell-based; settings: for rank in the kinase inhibitor library screen (rank order by z-score): 4 μM, 16 h, then CCCP 2 h, rank out of 480, low rank = activator of Parkin recruitment, high rank = inhibitor
Procedure: 10 uL of 0.1 mg/mL Poly-D-Lys solution was added to 384-well plates for 5 minutes, followed by a PBS wash. Plates were dried for at least 2 hours. 50 μL of 600 000 HEK293 GFP Parkin cell/mL of DMEM was dispensed into each well. After 24 hours incubation to allow the cells to adhere, 200 nL of small molecules (or DMSO in columns 1, 2, 23 and 24) were pinned. Following a 16-hour incubation, 200 nL of 5 mM CCCP were added to all wells except columns 1 and 2, into which 200 nL of DMSO was added. Following 2-hour incubation, cells were fixed with 4% paraformaldehyde (PFA) and stained with 50 μL of 1 μg/mL DAPI solution for 15 minutes. After the final PBS wash, plates were ready for high content microscopy.
Images were acquired on IN Cell Analyzer 6000 (GE Healthcare), equipped with sCMOS camera (2048×2048), and 20x/0.45 NA Plan Fluor objective (Nikon) in open aperture mode using 1×1 binning. Image analysis was performed using Columbus Image Analysis System (PerkinElmer). Nuclei were initially detected in DAPI channel, followed by whole cell segmentation in GFP channel. Using PhenoLOGIC machine learning plug-in, cells were split into 2 sub-populations: cells with even GFP-Parkin distribution and cells where GFP-Parkin was localized to mitochondria. The percentage of cells with mitochondrial GFP-Parkin was determined per well. The molecules were then rank ordered based on z-score, which is calculated using the formula: […]
where x is the percentage of cells with mitochondrial GFP-Parkin for a specific small molecule, μ is the average percentage of cells with mitochondrial Parkin in positive control columns 23 and 24, where cells are treated with CCCP only.
These cell lines were screened across 2 biological replicates with compounds from the kinase inhibitor (n=480) and Prestwick (n=1120) collections. The 3-day screening protocol consisted of (1) seeding cells, (2) pinning small molecules at 4 μM concentration and (3) inducing mitophagy with CCCP, followed by processing of plates for high content imaging. Following image acquisition, DAPI staining was used to segment cells within each image. Supervised machine learning was used to classify cells into two classes: (1) cells with cytosolic Parkin distribution and (2) those with Parkin localized to mitochondria. […] Compounds which increased the proportion of class 2 cells across 2 biological replicates, compared to the CCCP-only treated cells (FIG. 10), as indicated by their z-score (FIG. 11), were considered hits.

S2R+ cells = assay: mitoSOX mitochondrial superoxide staining; assay type: cell-based; settings: toxin alone
Procedure: A) Staining was performed with mitoSOX Red Mitochondrial Superoxide dye. B) Quantification of the fluorescence intensity of the mitoSOX probe in the indicated treatments (n=3). Data is presented as mean±s.e.m. P-values were determined by paired student's t-test, *P-value<0.05.
Whether SR3677 may protect against paraquat-induced phenotypes by interfering with paraquat's activity was also assessed. Paraquat gives rise to mitochondrial superoxide species that can be detected using mitoSOX, a fluorescent probe that is targeted to mitochondria, where it may be oxidized by superoxides. The oxidized mitoSOX species fluoresces upon encountering nucleic acid. The fluorescence intensity of Schneider's S2-R^+ cells, a cell line derived from dissociated embryos with a flat morphology amenable to imaging, was assessed following treatments with paraquat or paraquat and SR3677.

[2] = system: differentiated SH-SY5Y cells; assay: Cell viability determination (ATP levels normalized to protein); assay type: cell-based; settings: 500 μM, 24 hours
Procedure: SH-SY5Y cells were differentiated according to previously established protocol consisting of sequential treatment with retinoic acid followed by brain-derived neurotrophic factor^10. Cells were then seeded into white 96-well plates with white bottom and allowed to adhere overnight. Varying doses of SR3677 were combined with 500 μM paraquat and administered for 24 hours. Controls treated with 0.5 μM SR3677, equivalent volume DMSO and paraquat alone were also included. Following 24-hour incubation, cell media was aspirated and THE lysis buffer (50 mM Tris-HCl, 100 mM NaCl, 0.1 mM EDTA) containing protease inhibitor cocktail was added to each well. Half of the lysate volume was removed and aliquoted into a separate 96-well plate. ATP levels were measured in the opaque plate using the ATP determination (ThermoFisher A22066) assay kit and protein concentrations were measured using the Pierce BCA (ThermoFisher #23225) assay kit. ATP levels were normalized to protein concentration and then by the ratio for cells treated with paraquat alone in a control well on each plate.

Canton(S) flies = assay type: in vivo, Drosophila; settings: 10 mM paraquat in food
Procedure: Fresh vials containing standard fly food supplemented with the indicated treatments were changed out every 2 days. The number of flies surviving each day was counted and log-rank tests were performed to determine statistical significance. […] The number of flies to climb beyond 9.5 cm every 10 seconds was assessed. The percentage of flies in each treatment to cross this line was determined. The climbing ability of each treatment was normalized to the control group treated with water only. […] Log-rank tests were performed to determine p-values for survival analyses (a, b, g), *P<0.05. P-values were determined by one-tailed paired student's t-test for all climbing assays (c-e, h), *P<0.05. Data is expressed as mean±s.e.m. All error bars represent s.e.m
Drosophila aged 7 days are fed food supplemented with either water (control), 1 mM SR3677, 10 mM paraquat or SR3677 in combination with paraquat. The survival of flies was recorded each day following administration of the treatments and climbing abilities were tested every 2 days by performing negative geotaxis assays.

Drosophila = assay type: in vivo; settings: Canton(S), 10 mM paraquat
Procedure: Fresh vials containing standard fly food supplemented with the indicated treatments were changed out every 2 days. The number of flies surviving each day was counted and log-rank tests were performed to determine statistical significance. 20 flies per treatment, n=5 (c) The climbing ability of flies treated as described in (a and bin) was assessed 4 days following initial administration of treatments. The number of flies to climb beyond 9.5 cm every 10 seconds was assessed. The percentage of flies in each treatment to cross this line was determined. The climbing ability of each treatment was normalized to the control group treated with water only. 20 flies per treatment, n=5. (d) The climbing ability of UAS-park^RNAi and ddc-GAL4>UAS-park^RNAi flies fed either paraquat or paraquat in combination with SR3677. 20 flies per treatment, n=7. (e) Proteins lysates from UAS-park^RNAi or tubulin>UAS-park^RNAi whole flies were separated by SDS-PAGE. Immunoblotting with anti-Parkin and anti-actin antibody was performed. (f) The climbing ability of TH-GAL flies fed either paraquat or paraquat in combination with SR3677. (g) Survival of heteroplasmic mt:Coll^T300l flies fed fly food supplemented with water or 2 mM SR3677 and wild-type Canton(S) flies (n=3 independent experiments). (h) The climbing ability of heteroplasmic mt:Coll^T300l flies fed either water or 2 mM SR3677 for 7 days. Log-rank tests were performed to determine p-values for survival analyses (a, b, g), *P<0.05. P-values were determined by one-tailed paired student's t-test for all climbing assays (c-e, h), *P<0.05. Data is expressed as mean±s.e.m. All error bars represent s.e.m
Male Canton(S) Drosophila were aged 7 days prior to feeding with standard fly food supplemented with water, 10 mM paraquat, 1 mM SR3677, or with combinations of these chemicals. Flies were placed into new vials containing fresh food supplemented with the treatments previously administered and 2 days later, climbing assays were performed. Flies were placed into plastic cylinder vials and tapped down, so all flies fell to the bottom. The number of flies to climb beyond 12.5 cm was counted every 10 s and values are represented as the percentage of total flies in each treatment group.

HEK293 GFP Parkin cells [3] = assay: Parkin recruitment assay; assay type: cell-based
Procedure: HEK293 GFP Parkin cells were seeded into 12-well plates containing coverslips. Cells were treated with small molecules for 2 hours prior to mitophagy induction with 10 μM CCCP, unless indicated otherwise. Following fixation with 4% PFA, immunostaining was carried out using anti-ATP5A primary antibody and anti-mouse Alex Fluor 568.
To measure the percentage of cells with Parkin localized to mitochondria a 2 step process was employed: (1) whole cell segmentation based on GFP Parkin using CellProfiler software and (2) classification into Parkin distribution subpopulation using CellProfiler Analyst. The percentage of cells with Parkin localized to mitochondria was determined in each image. Images were taken at 20× magnification for this experiment, resulting in the classification of at least 300 cells in each treatment group per trial.

HEK293 GFP Parkin cells [4] = assay: Immunoblotting of mitochondrial protein degradation after CCCP; assay type: cell-based; settings: 10 μM CCCP
Procedure: (a) HEK293 GFP Parkin cells were treated with varying doses of SR3677 for 2 hours prior to induction of mitophagy with 10 μM CCCP for one hour. The percentage of cells with mitochondrial Parkin increased in a dose-dependent manner. […] Cell lysates were harvested, proteins were separated by SDS-PAGE and immunoblotting was performed with anti-Mfn2 and anti-actin antibodies. (c) Ponceau VDAC1 levels in each sample normalized to Ponceau staining. (d) Mfn2/actin levels in CCCP treated cells. (e) Densitometry analysis was performed to quantify Mfn2 and VDAC1 levels in each sample (n=4 independent experiments).
HEK293 GFP Parkin cells co-treated with 0.5 μM SR3677 or DMSO and 10 μM CCCP for the indicated time (hours). Cell lysates were separated by SDS-PAGE and immunoblotting was performed to assess turnover of IMM/matrix substrates (A) ATP5A, (B) UQCRC2 and (C) COXIV. Densitometry analysis was performed. Protein levels were normalized to Ponceau. Data is expressed as mean±s.e.m (n=6, 7 and 8 for a, b and c, respectively. 4) P-values were determined by paired student's t-test, *P<0.05.
Lysates were harvested using lysis buffer (0.1M Tris HCl, 0.01% SDS, pH 9) with 1× protease inhibitor cocktail (BioShop, PIC002.1). Lysates were then heated at 95° C. for 20 minutes with vortexing performed at 5-minute intervals. The BCA assay (Pierce, 23227) was performed to determine protein concentration, to standardize protein loading across samples to be compared. 12% SDS-PAGE gels were used to run samples to be analyzed for LC3 conversation and for Tom20 and 10% gels were run for all other samples. Transfer of proteins onto PVDF membrane (Immobilon, IPVH00010) was performed at 110V for 80 minutes or at 36V for 8 hours. Membranes were blocked with 5% skim milk in TBST (1×TBS, 0.1% Tween-20 [BioShop, 1M23298]) for 30 minutes prior to incubation in primary antibodies at a dilution of 1:1000 for all antibodies except anti-ROCK2 and anti-LC3, which were used at a dilution of 1:5000. Visualization of proteins was performed using ECL (BioRad, 11705062).
Densitometry was performed by normalizing bands corresponding to the protein of interest to a loading control such as actin using ImageLab 6.0 software (BioRad).

ROCK2 = ROCK2 (Homo sapiens, UniProt O75116); settings: biochemical and cell-based assays, previous studies; cited from earlier work
[5] = cited from earlier work

Chain of ROCK2 (O75116 whole entry): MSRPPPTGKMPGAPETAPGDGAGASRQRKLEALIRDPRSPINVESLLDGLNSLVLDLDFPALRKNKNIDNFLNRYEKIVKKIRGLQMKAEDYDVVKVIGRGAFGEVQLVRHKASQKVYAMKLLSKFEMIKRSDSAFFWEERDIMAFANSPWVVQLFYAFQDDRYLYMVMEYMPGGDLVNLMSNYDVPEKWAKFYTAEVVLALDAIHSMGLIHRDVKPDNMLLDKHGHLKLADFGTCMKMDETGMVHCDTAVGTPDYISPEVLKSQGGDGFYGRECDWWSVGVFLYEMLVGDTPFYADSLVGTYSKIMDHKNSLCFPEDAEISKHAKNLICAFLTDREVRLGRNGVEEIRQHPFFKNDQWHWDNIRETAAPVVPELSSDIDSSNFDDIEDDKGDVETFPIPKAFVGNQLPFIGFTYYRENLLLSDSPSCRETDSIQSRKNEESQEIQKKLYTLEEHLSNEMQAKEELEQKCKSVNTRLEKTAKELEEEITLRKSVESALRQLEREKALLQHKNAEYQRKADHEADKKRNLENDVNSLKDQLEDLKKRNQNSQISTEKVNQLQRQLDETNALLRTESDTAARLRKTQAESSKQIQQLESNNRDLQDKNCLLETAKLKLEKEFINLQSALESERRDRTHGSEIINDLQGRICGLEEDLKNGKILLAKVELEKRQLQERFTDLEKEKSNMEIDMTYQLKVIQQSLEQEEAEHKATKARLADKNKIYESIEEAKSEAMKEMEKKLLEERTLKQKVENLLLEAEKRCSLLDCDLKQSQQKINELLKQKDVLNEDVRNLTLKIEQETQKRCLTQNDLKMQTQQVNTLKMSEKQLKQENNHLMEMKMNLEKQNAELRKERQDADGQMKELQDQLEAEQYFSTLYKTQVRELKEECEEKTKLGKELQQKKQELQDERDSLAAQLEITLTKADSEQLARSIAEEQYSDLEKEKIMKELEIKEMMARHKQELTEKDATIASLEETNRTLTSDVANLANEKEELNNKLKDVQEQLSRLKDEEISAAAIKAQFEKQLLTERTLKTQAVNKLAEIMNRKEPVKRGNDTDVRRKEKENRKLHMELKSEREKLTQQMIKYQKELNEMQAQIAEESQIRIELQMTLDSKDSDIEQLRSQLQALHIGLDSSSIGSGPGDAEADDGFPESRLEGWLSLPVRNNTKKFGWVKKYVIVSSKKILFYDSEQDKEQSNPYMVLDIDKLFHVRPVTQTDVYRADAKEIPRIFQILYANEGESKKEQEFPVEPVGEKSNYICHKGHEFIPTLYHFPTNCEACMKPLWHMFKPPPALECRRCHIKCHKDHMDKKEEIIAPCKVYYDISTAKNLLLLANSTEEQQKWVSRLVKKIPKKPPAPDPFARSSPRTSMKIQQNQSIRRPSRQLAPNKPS

NC(=O)Nc1cc(-c2cccc(F)c2)sc1C(=O)N[C@H]1CCCNC1 [AZD-7762]
rank in the kinase inhibitor library screen (rank order by z-score) (HEK293 GFP Parkin cells [1]): 413/480

NC(=O)c1ccc2nc(-c3ccc(Oc4ccc(Cl)cc4)cc3)[nH]c2c1 [Chk2 inhibitor II]
rank in the kinase inhibitor library screen (rank order by z-score) (HEK293 GFP Parkin cells [1]): 402/480

CC(C)(C)OO [luperox]
fluorescence intensity of mitoSOX (S2R+ cells): increases the fluorescence intensity of mitoSOX

O=C(Nc1ccncc1)Nc1c(Cl)cc(Cl)cc1Cl [rho kinase inhibitor II]
class in the screen (FIG. 1b) (HEK293 GFP Parkin cells [1]; ROCK inhibitors, 4 μM plus CCCP): Enhancers of Parkin recruitment

Cc1cnc(Nc2ccc(OCCN3CCCC3)cc2)nc1Nc1cccc(S(=O)(=O)NC(C)(C)C)c1 [TG-101348]
rank in the kinase inhibitor library screen (rank order by z-score) (HEK293 GFP Parkin cells [1]): 418/480

C[n+]1ccc(-c2cc[n+](C)cc2)cc1 [Paraquat]
cell viability, paraquat alone [2]: reduced the viability of cells
survival of flies, paraquat alone (Canton(S) flies): reduced
climbing ability, paraquat alone (Drosophila): impairs the climbing ability of flies over time
fluorescence intensity of mitoSOX (S2R+ cells): increases the fluorescence intensity of mitoSOX

O=c1[nH]c2ccc(Cl)cc2c(N[C@@H]2CN3CCC2CC3)c1-c1nc2ccccc2[nH]1 [CHIR-124]
rank in the kinase inhibitor library screen (rank order by z-score) (HEK293 GFP Parkin cells [1]): 403/480

CN[C@@H]1C[C@H]2O[C@@](C)([C@@H]1OC)n1c3ccccc3c3c4c(c5c6ccccc6n2c5c31)C(=O)NC4 [Staurosporine]
position among hits of the screen (HEK293 GFP Parkin cells [1]; known activator of Parkin-mediated mitophagy): ≤ 0.3%

C[C@@H](N)c1ccc(C(=O)Nc2ccnc3[nH]ccc23)cc1 [Y39983]
rank in the kinase inhibitor library screen (rank order by z-score) (HEK293 GFP Parkin cells [1]): 5/480
Parkin recruitment on re-test (HEK293 GFP Parkin cells [3]; 10 μM, 2-hour treatment, CCCP): recapitulated the effects observed following overnight incubation
Parkin distribution in the absence of CCCP (HEK293 GFP Parkin cells [3]; compound alone): diffuse
concentration administered to enhance Mfn2 degradation (HEK293 GFP Parkin cells [4]): 10 µM
Mfn2 degradation following CCCP (HEK293 GFP Parkin cells [4]; 2 h pre-treatment, Y39983 10 μM, SR3677 0.5 μM): Increased degradation of Mfn2
ROCK2 inhibition (ROCK2): sufficiently inhibit both ROCK1 and ROCK2
cell permeability [5]: poor cell permeability
